This is an account of results in BindingDB's records for doi:10.7270/Q2CF9NJZ (Nmmlsc, 2010).

Each structure is given as a SMILES string.

In the test the target is Regulator of G-protein signaling 4 (Homo sapiens, UniProt P49798). As to the kind of experiment: small molecules altering RGS4 interaction with Galphao – biochemical, multiplexed bead flow cytometry, SAR compounds, SAR follow-up (AID 2295).
Regulator of G-protein signaling 4, sequence (P49798 whole entry): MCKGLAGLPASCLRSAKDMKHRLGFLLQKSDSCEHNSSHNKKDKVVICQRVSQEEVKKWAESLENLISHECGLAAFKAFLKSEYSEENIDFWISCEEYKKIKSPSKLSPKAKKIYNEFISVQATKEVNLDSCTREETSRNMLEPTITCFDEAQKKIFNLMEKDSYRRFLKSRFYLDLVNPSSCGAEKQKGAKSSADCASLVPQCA

`CN1CCN(C2=C(Cl)C(=O)C(c3cnc(N4CCCCC4)s3)=C(Cl)C2=O)CC1` registered an EC50 of 0.336 µM.
With `CCN=c1scc(C)n1N=Cc1ccc(O)c(O)c1O`, the EC50 worked out at 3.52 µM.
On the same count and under the same terms, then `CCN(CC)S(=O)(=O)c1cccc(C(=O)NN=Cc2ccc(O)c(O)c2O)c1`, with 0.632 µM.
The compound `Cc1cccc(N2CCN(C(=O)COc3nsc4nc(C)cc(C)c34)CC2C)c1` (configuration not stated) returned an EC50 of 6.85 µM.
For `Cc1cccc(N2CCN(C(=O)Cn3ccc4nc(C)cc(C)c4c3=O)CC2C)c1` (configuration not stated) [2,4-dimethyl-6-[2-[3-methyl-4-(3-methylphenyl)piperazin-1-yl]-2-oxidanylidene-ethyl]-1,6-naphthyridin-5-one], the EC50 is more than 30 µM.
Same read-out and setting: as for `Cc1cc(C)c2c(=O)n(CC(=O)N3CCN(c4ccccc4)CC3)ccc2n1` [2,4-dimethyl-6-[2-oxidanylidene-2-(4-phenylpiperazin-1-yl)ethyl]-1,6-naphthyridin-5-one], the figure is more than 30 µM; as for `Cc1cc(C)c2c(n1)CCN(CC(=O)N1CCN(c3ccccc3)CC1)C2=O` [2,4-dimethyl-6-[2-oxidanylidene-2-(4-phenylpiperazin-1-yl)ethyl]-7,8-dihydro-1,6-naphthyridin-5-one], more than 30 µM; as for `O=c1c2ccccc2sn1-c1ccc(S(=O)(=O)N2CCCC2)cc1` [2-(4-pyrrolidin-1-ylsulfonylphenyl)-1,2-benzothiazol-3-one], 0.323 µM.
Regarding `Cc1cccc(N2CCN(C(=O)COc3noc4nc(C)cc(C)c34)CC2C)c1` (configuration not stated) [2-[(4,6-dimethyl-[1,2]oxazolo[5,4-b]pyridin-3-yl)oxy]-1-[3-methyl-4-(3-methylphenyl)piperazin-1-yl]ethanone], the 50% effective concentration (EC50) is more than 30 µM.
Compound `O=c1c2ccccc2sn1-c1ccccc1` [2-phenyl-1,2-benzothiazol-3-one] registered an EC50 of 0.135 µM. In other words, the sub-micromolar range.
`O=C(NCCCN1CCOCC1)c1sc2cc([N+](=O)[O-])ccc2c1Cl` [3-chloranyl-N-(3-morpholin-4-ylpropyl)-6-nitro-1-benzothiophene-2-carboxamide] returned an EC50 of 10.1 µM. Against the preceding compound, the EC50 is about 75-fold higher.
The same measure, in the same setting: as for `COC(=O)CCC(=O)Nc1sc(C)c(C)c1C(N)=O` [4-[(3-carbamoyl-4,5-dimethyl-2-thienyl)amino]-4-keto-butyric acid methyl ester], the figure is more than 30 µM.
Still for that read-out and setting: then `CCN(CC)S(=O)(=O)c1cccc(-c2n[nH]c(=S)n2N=Cc2ccc(C(=O)OC)cc2)c1` [4-[(E)-[3-[3-(diethylsulfamoyl)phenyl]-5-thioxo-1H-1,2,4-triazol-4-yl]iminomethyl]benzoic acid methyl ester], with 9.64 µM; and `NS(=O)(=O)c1ccc(N=NCc2ccc(O)c(O)c2O)c([N+](=O)[O-])c1` [4-[[(E)-(2,3-dihydroxy-4-oxo-1-cyclohexa-2,5-dienylidene)methyl]hydrazo]-3-nitrobenzenesulfonamide], with 1.2 µM; and `CCOC(=O)c1sc(NC(=O)CSc2nnc(Cc3ccccc3)o2)c(C#N)c1C` [4-cyano-3-methyl-5-[[1-oxo-2-[[5-(phenylmethyl)-1,3,4-oxadiazol-2-yl]thio]ethyl]amino]-2-thiophenecarboxylic acid ethyl ester], with 7.85 µM.
As to `CN=c1scc(C)n1N=Cc1ccc(O)c(O)c1O` [(4E)-2,3-dihydroxy-4-[[(4-methyl-2-methylimino-1,3-thiazol-3-yl)amino]methylidene]cyclohexa-2,5-dien-1-one], the EC50 came to 1.71 µM.
As to `Cc1[nH]n(-c2ccccc2)c(=S)c1/C=N/c1cccc([N+](=O)[O-])c1` [(4E)-5-methyl-4-[(3-nitroanilino)methylene]-2-phenyl-2-pyrazoline-3-thione], a half-maximal response (EC50) required 11 µM.
In the case of `Cc1cccc(N2CCN(C(=O)CN3CCc4nc(C)cc(C)c4C3=O)CC2C)c1` (configuration not stated) [KUC103675N], the EC50 was more than 30 µM.
Same read-out and setting: as for `Cc1cc(Cl)ccc1/N=c1/ssnc1Cl` [MLS000539990], the figure is 0.3 µM; as for `O=C1C(Cl)=C(N2CCCCC2)C(=O)C(Cl)=C1c1cnc(N2CCCCC2)s1` [MLS000550549], 0.269 µM.
Still for that read-out and setting: as for `CCC(=O)NC(c1ccc(C)cc1)c1cc([N+](=O)[O-])c2cccnc2c1O` (configuration not stated) [MLS000553854], the figure is 6.61 µM.
`CCOc1ccccc1-c1c2cc(O)c(=O)cc-2oc2cc(O)c(O)cc12` [MLS000578271] had an EC50 (inactive by the depositor's call) of 3.66 µM.
Turning to `COc1ccc(C2=CC(=O)C=CC2=O)cc1` [MLS001029846], it took 0.573 µM to reach a half-maximal effect (EC50).
The same measure, in the same setting: as for `O=C(COc1ccccc1C(=O)NN=Cc1ccc(O)c(O)c1)NN=Cc1ccc(O)c(O)c1` [N''-[(Z)-(3-hydroxy-4-oxo-1-cyclohexa-2,5-dienylidene)methyl]-2-[2-[[(Z)-(3-hydroxy-4-oxo-1-cyclohexa-2,5-dienylidene)methyl]hydrazo]-2-oxoethoxy]benzohydrazide], the figure is 0.164 µM; as for `CC1(C)OC(=O)C(=Cc2ccc(-c3ccc(S(N)(=O)=O)cc3)o2)C(=O)O1` [SMR000273939], more than 30 µM; as for `O=C(Cc1csc(N2CCOCC2)n1)NN=Cc1ccc(O)c(O)c1O` [SMR000369439], 1.1 µM.
Compound `Nc1c(C(=O)NCC2CCCO2)sc2nc3c(c(-c4ccco4)c12)CC/C3=C/c1ccco1` (configuration not stated) [UNM-0000305796] came in with an EC50 of more than 30 µM.
